According to US11026999B2, “Insulin glargine/lixisenatide fixed ratio formulation” (SANOFI-AVENTIS DEUTSCHLAND GMBH, priority 2013, dated 2021):

Assays:
type 2 diabetic patients [1] = assay: 7-point Self-Monitored Plasma Glucose (SMPG) profile (Example 1); assay type: in vivo, human; details: mITT population
Excerpt: In yet another aspect of the present invention, the composition as described herein can be used for improving average 7-point SMPG profile. […] Self-monitored plasma glucose (SMPG), as used herein, is in particular the “7-point Self Monitored Plasma Glucose”. “7-point Self Monitored Plasma Glucose” in particular refers to the measurement of plasma glucose seven times a day and calculation of the average plasma glucose concentration therefrom. The “7-point Self Monitored Plasma Glucose” value is in particular an average plasma glucose concentration including fasting and postprandial conditions. In particular, measurements of plasma glucose concentration are performed pre-breakfast, post-breakfast (e.g. 2-hour post-breakfast), pre-lunch, post-lunch (e.g. 2-hour post-lunch), pre-dinner, post-dinner (e.g. 2-hour post-dinner) and at bedtime (see also FIG. 3). The treatment by the combination of the present invention, as described herein, can improve the self-monitored plasma glucose.
(§1) Criteria for Evaluation: • Efficacy: • Primary Endpoint: • Change in HbA1c from baseline to Week 24 • Secondary Endpoints: • Change in 2-hour PPG during meal test from baseline to Week 24 • Change in 2-hour plasma glucose excursion during meal test from baseline to Week 24 • Percentage of patients reaching HbA1c ≤6.5% or <7% at Week 24 • Change in 7-point SMPG profiles from baseline to Week 24 (each time point and mean daily value) • Change in body weight from baseline to Week 24, • Average daily Insulin glargine dose at Week 24 • Change in FPG from baseline to Week 24 • Percentage of patients requiring rescue therapy during the 24-week open-label treatment period • Change in 30-minute and 1-hour PPG and plasma glucose excursion during meal test from baseline to week 24 • Percentage of patients reaching HbA1c <7% at week 24 with no documented symptomatic hypoglycemia during the 24-week open label treatment period • Percentage of patients reaching HbA1c <7% with no weight gain at week 24
(§2) All continuous secondary efficacy endpoints were analyzed using a similar ANCOVA model with treatment, randomization strata of screening HbA1c (<8%, ≥8%), randomization strata of screening BMI (<30 kg/m^2, ≥30 kg/m^2) and country as fixed effects and using the baseline value of the corresponding parameter as a covariate. Insulin glargine dose was not included in the ANCOVA model as a covariate since patients enrolled were insulin-naïve.

type 2 diabetic patients [2] = assay: Major cardiovascular events adjudicated by CAC (Example 1); design: species or system human; details: in vivo
Excerpt: One patient in the combination group and one patient in the insulin glargine group had respectively two events (hospitalization for unstable angina and percutaneous coronary intervention (PCI]) and one event (PCI) adjudicated as major cardiovascular events by cardiovascular events adjudication committee (CAC).

type 2 diabetic patients [3] = assay: Lipase, amylase and calcitonin monitoring (Example 1); design: species or system human; details: in vivo
Excerpt: Per protocol, any increase in amylase and/or lipase above twice the upper limit of normal range (ULN) or in Calcitonin ≥20 pg/mL that had been confirmed by a repeat measurement was to be monitored and documented on a specific AE form. […] No patients reported a TEAE of increased calcitonin (≥20 pg/mL).
The number of patients who had at least 1 value of lipase or amylase ULN, or at least 1 value of calcitonin ≥20 pg/ml during the on-treatment period was also summarized. One patient in the insulin glargine group had at least 1 value of amylase ≥3 ULN, and 5 patients (4 in the combination group and 1 in the insulin glargine group) had at least 1 value of lipase ≥3 ULN. One patient in the insulin glargine group had 1 value of calcitonin ≥20 pg/ml (but <50 pg/ml) with retested values within the normal range.

type 2 diabetic patients [4] = assay: 2-hour postprandial plasma glucose during standardized meal test (Example 1); assay type: in vivo, human; details: mITT; for 2-hour postprandial plasma glucose change from baseline to Week 24 (LOCF), LS Mean (SE): ANCOVA
Excerpt: as §1, §2

Body weight (Example 1) = assay type: in vivo, human; details: for Body weight change from baseline to Week 24 (LOCF), LS Mean (SE): ANCOVA
Excerpt: as §1, §2

type 2 diabetic patients [5] = assay: Fasting plasma glucose (Example 1); assay type: in vivo, human; details: mITT population; for Fasting plasma glucose change from baseline to Week 24 (LOCF), LS Mean (SE): ANCOVA
Excerpt: as §1, §2

Substance: Gly(A21)-Arg(B31)-Arg(B32)-human insulin [Insulin Glargine]
- Average 7-point SMPG at Week 24 (LOCF), Mean (SD) (type 2 diabetic patients [1]): 7.01 (1.15) mmol/L
- Average 7-point SMPG at Week 24 (LOCF), Median (type 2 diabetic patients [1]): 6.94 mmol/L
- Average 7-point SMPG change from baseline to Week 24 (LOCF), Mean (SD) (type 2 diabetic patients [1]): −2.81 (2.18) mmol/L
- Average 7-point SMPG change from baseline to Week 24 (LOCF), Median (type 2 diabetic patients [1]): -2.31 mmol/L
- Average 7-point SMPG change from baseline to Week 24 (LOCF), LS Mean (SE) (type 2 diabetic patients [1]; ANCOVA): −2.93 (0.101) mmol/L
- Events adjudicated as major cardiovascular events by CAC (type 2 diabetic patients [2]): one
- Patients with events adjudicated as major cardiovascular events by CAC (type 2 diabetic patients [2]): one
- Patients with 1 value of calcitonin ≥20 pg/ml (but <50 pg/ml) (type 2 diabetic patients [3]): One
- Patients with TEAE of amylase increased (>2 ULN) reported on the specific AE form (type 2 diabetic patients [3]): 1 patient
- Patients with TEAE of lipase increased (>2 ULN) reported on the specific AE form (type 2 diabetic patients [3]): 1 [0.6%] n (%)
- Patients with at least 1 value of amylase ≥3 ULN (type 2 diabetic patients [3]): One
- Patients with at least 1 value of lipase ≥3 ULN (type 2 diabetic patients [3]): 1 patients
- 2-hour postprandial plasma glucose at Week 24 (LOCF), Mean (SD) (type 2 diabetic patients [4]): 11.55 (2.83) mmol/L
- 2-hour postprandial plasma glucose at Week 24 (LOCF), Median (type 2 diabetic patients [4]): 11.10 mmol/L
- 2-hour postprandial plasma glucose change from baseline to Week 24 (LOCF), Mean (SD) (type 2 diabetic patients [4]): −3.96 (4.05) mmol/L
- 2-hour postprandial plasma glucose change from baseline to Week 24 (LOCF), Median (type 2 diabetic patients [4]): -3.90 mmol/L
- 2-hour postprandial plasma glucose change from baseline to Week 24 (LOCF), LS Mean (SE) (type 2 diabetic patients [4]): −4.33 (0.274) mmol/L
- 2-hour postprandial plasma glucose change from baseline to Week 24 (LOCF), LS Mean (SE) (type 2 diabetic patients [4]; listed as insulin glargine): -4.33 mmol/L
- Body weight at Week 24 (LOCF), Mean (SD) (Body weight (Example 1); mITT population): 92.09 (16.30) kg
- Body weight at Week 24 (LOCF), Median (Body weight (Example 1); mITT population): 91.00 kg
- Body weight change from baseline to Week 24 (LOCF), Mean (SD) (Body weight (Example 1); mITT population): 0.39 (2.96) kg
- Body weight change from baseline to Week 24 (LOCF), Median (Body weight (Example 1); mITT population): 0.35 kg
- Body weight change from baseline to Week 24 (LOCF), LS Mean (SE) (Body weight (Example 1); mITT population): 0.48 (0.282) kg
- Body weight change from baseline to Week 24 (LOCF), LS Mean (SE) (Body weight (Example 1); mITT population, listed as insulin glargine): +0.48 kg
- LS mean body weight increase from baseline to week 24 (Body weight (Example 1); worded as increased by): 0.48 kg
- Fasting plasma glucose at Week 24 (LOCF), Mean (SD) (type 2 diabetic patients [5]): 6.20 (1.35) mmol/L
- Fasting plasma glucose at Week 24 (LOCF), Median (type 2 diabetic patients [5]): 5.95 mmol/L
- Fasting plasma glucose change from baseline to Week 24 (LOCF), Mean (SD) (type 2 diabetic patients [5]): −3.28 (2.39) mmol/L
- Fasting plasma glucose change from baseline to Week 24 (LOCF), Median (type 2 diabetic patients [5]): -3.00 mmol/L
- Fasting plasma glucose change from baseline to Week 24 (LOCF), LS Mean (SE) (type 2 diabetic patients [5]): −3.51 (0.128) mmol/L
- Fasting plasma glucose change from baseline to Week 24 (LOCF), LS Mean (SE) (type 2 diabetic patients [5]; listed as insulin glargine): -3.51 mmol/L
